Measured values reported in patent publication US4138589A, “Substituted isophthalamic acids” (Mallinckrodt, Inc., priority 1977, dated 1979).
“And” between values parts separate entries of the source, which are not always exact repeats. Equal values may be shown once. Where a name gives a salt, the structure may show the parent alone. Read-outs that look alike come from different tables or passages of the source. Values belong to the compound of their own block, whether it stands above or below them.

How the values were obtained:
Water solubility = assay type: physicochemical; conditions: for solubility: water
[1] = prior art; cited from earlier work
rats = assay: Intracisternal Toxicity in Rats; assay type: in vivo, Sprague Dawley (Carworth) rats; conditions: meglumine salt solution, two day observation
Experimental: (§1) Satisfactory intravenous urograms are obtained when any of the preparations described in Examples 28-32 is administered to dogs at a dosage of 350 mg. I/kg. Toxicity evaluations by three different techniques were carried out on solutions of the meglumine salts of three 5-acetamido-N-[poly(hydroxyalkyl)alkyl]2,4,6-triiodoisophthalamic acids of the invention. The techniques utilized are outlined below.
Sprague Dawley (Carworth) rats were used. The method used was a variation of the procedure outlined by Melartin et al. (Invest. Rad. 5:13-21, 1970). After dosing, the animals were housed individually, and observed for immediate reactions and periodically for a two day observation period. The LD50 values were calculated according to the method of Litchfield and Wilcoxon, (J. of Pharmac. and Exptl. Therap. 96:99-115, 1949).

mice [2] = assay: Intracerebral Toxicity in Mice; assay type: in vivo, Swiss Albino mice (Charles River); conditions: meglumine salt solution, seven day observation
Experimental: as §1
Swiss Albino mice (Charles River) were used. Fixed volumes of solutions of various concentrations of the iodinated compounds were injected intracerebrally via a 27 gauge needle, (1/4 inch length) according to the method of Haley, et al. (Br. J. of Pharmac. 12:12-15, 1957). The animals were observed immediately after injections and daily throughout a seven day observation period. The LD50 values were calculated by the method of Litchfield and Wilcoxon (J. of Pharmac. and Exptl. Therap. 96:99-113, (1949).

[3] = Acute Intravenous Toxicity Studies in Mice; assay type: in vivo; conditions: mouse, in vivo, iv, meglumine salt solution, 28.27% iodine, lateral tail vein, 1 ml/min, seven day observation; read-out: LD50 I.V. (Mice)
Experimental: as §1
(§2) Swiss Albino mice (Charles River) were dosed in the lateral tail vein with solutions of the iodinated compound containing 28.27% of iodine, injected at the rate of 1 ml/min. […] The LD50 values were calculated by the method of Litchfield and Wilcoxon (J. of Pharmac. and Exptl. Therap. 96: 99-113, 1949).

[4] = found by V. H. Wallingford; cited from earlier work
mice [5] = assay: Acute Intravenous Toxicity Studies in Mice; assay type: in vivo; conditions: meglumine salt solution, 28.27% iodine, lateral tail vein, 1 ml/min, seven day observation; 10080 min
Experimental: as §1, §2

[6] = temperature not stated, read-out: solubility

SMILES: COCC(=O)Nc1c(I)c(C(=O)[O-])c(I)c(C(=O)NC(CO)(CO)CO)c1I.[Na+]
solubility (Water solubility; sodium salt, 25° C., read-out: solubility in water): ~674 mg/mL

solubility (Water solubility; sodium salt powder, read-out: solubility in water): ≥ 1000 mg/mL
SMILES: CC(=O)Nc1c(I)c(C(=O)[O-])c(I)c(C(=O)NC(COC(C)=O)(COC(C)=O)COC(C)=O)c1I.[Na+]

SMILES: CC(=O)Nc1c(I)c(NC(C)=O)c(I)c(C(=O)O)c1I [diatrizoic acid, 3,5-diacetamido-2,4,6-triiodobenzoic acid]
toxicity (in words) [1]: still further reduced toxicity as compared with acetrizoic acid

solubility (Water solubility; [6]): ~930 mg/mL
SMILES: CC(CO)(CO)NC(=O)c1c(I)c(N)c(I)c(C(=O)O)c1I [sodium salt of Example 9]

SMILES: CC(=O)Nc1c(I)c(C(=O)O)c(I)c(C(=O)NC(C)(CO)CO)c1I [Example 10, 5-Acetamido-N-[2-(1,3-dihydroxy-2-methyl) Propyl]-2,4,6-triiodoisophthalamic Acid]
LD50 Intracisternal (Rats) (rats): 242 mg. contained iodine/kg. anima
LD50 Intracerebral (Mice) (mice [2]): 790 mg. contained iodine/kg. anima
LD50 at 168 h [3]: 4650 mg/kg

solubility (Water solubility; sodium salt, temperature not stated, read-out: water solubility): ~800 mg/mL
SMILES: Nc1c(I)c(C(=O)O)c(I)c(C(=O)NC(CO)(CO)CO)c1I [sodium salt of 5-amino-N-[tris-(hydroxymethyl)methyl]-2,4,6-triiodoisophthalamic acid]

SMILES: COCC(=O)Nc1c(I)c(C(=O)O)c(I)c(C(=O)NC(CO)(CO)CO)c1I [Example 26(d), 2,4,6-Triiodo-5-methoxyacetamido-N-[tris(hydroxymethyl)methyl]isophthalamic Acid]
LD50 Intracisternal (Rats) (rats): ~150 mg. contained iodine/kg. anima
LD50 Intracerebral (Mice) (mice [2]): ~650 mg. contained iodine/kg. anima

SMILES: CC(=O)Nc1c(I)cc(I)c(C(=O)[O-])c1I.[Na+]
water solubility (in words) [4]: unexpectedly high
toxicity (in words) [1]: unexpectedly low

SMILES: CC(=O)Nc1c(I)c(C(=O)O)c(I)c(C(=O)NCCO)c1I [5-acetamido-2,4,6-triiodo-N-(2-hydroxyethyl)-isophthalamicacid, reference compound]
LD50 Intracisternal (Rats) (rats): 49 mg. contained iodine/kg. anima
LD50 Intracerebral (Mice) (mice [2]): 174 mg. contained iodine/kg. anima
LD50 at 168 h [3]: 5810 mg/kg

SMILES: CNC(=O)c1c(I)c(NC(C)=O)c(I)c(C(=O)O)c1I [Iothalamic Acid, 5-acetamido-2,4,6-triiodo-N-methylisophthalamic acid, reference compound]
LD50 Intracisternal (Rats) (rats): 86 mg. contained iodine/kg. anima
LD50 Intracerebral (Mice) (mice [2]): 280 mg. contained iodine/kg. anima
LD50 at 168 h [3]: 5740 mg/kg

SMILES: CC(=O)Nc1c(I)c(C(=O)O)c(I)c(C(=O)NC(C)(COC(C)=O)COC(C)=O)c1I [Example 23, Sodium 5-acetamido-N-[(1,3-diacetoxy-2-methyl)-2-propyl]-2,4,6-triiodoisophthalamate]
crystallization of aqueous solution on standing (Water solubility; 102.5% w/v solution, room temperature): No crystallization occurred
solubility (Water solubility; [6]): > 1000 mg/mL

SMILES: CC(=O)Nc1c(I)c(C(=O)O)c(I)c(C(=O)NC(CO)(CO)CO)c1I [Examples 4(A) and 5, 5-Acetamido-N-[tris(hydroxymethyl)methyl]-2,4,6-triiodoisophthalamic Acid]
LD50 Intracisternal (Rats) (rats): 151 mg. contained iodine/kg. anima
LD50 Intracerebral (Mice) (mice [2]): 700 mg. contained iodine/kg. anima and 638 mg. contained iodine/kg. anima
LD50 at 168 h [3]: 6150 mg/kg
LD50 I.V. (Mice) (mice [5]): 6200 mg. contained iodine/kg. anima

SMILES: CC(=O)Nc1c(I)c(C(=O)O)c(I)c(C(=O)NC(CO)(CO)CO)c1I [Example 7, meglumine salt of 5-acetamido-N-[tris(hydroxymethyl)methyl]-2,4,6-triiodoisophthalamic acid]
solubility (Water solubility; [6]): > 600 mg/mL

SMILES: CC(=O)Nc1c(I)c(C(=O)O)c(I)c(C(=O)NC(C)(CO)CO)c1I [Example 11, 5-Acetamido-N-[2-(1,3-dihydroxy-2-methyl)-propyl]-2,4,6-triiodoisophthalamic Acid, Sodium Salt]
solubility (Water solubility; [6]): ~820 mg/mL
